Laboratory results taken from US11279726B2, “Norbornene-based amphipathic compound and utilization thereof” (Industry-University Cooperation Foundation Hanyang …, priority 2017, dated 2022).

Target: T1, Salmonella typhimurium melibiose permease (MelBSt) (Salmonella typhimurium, UniProt P30878)
T1 construct: made in house; host or cells: E. coli DW2 (ΔmelB, ΔlacZY)
Experiment: MelBSt extraction and thermostability (SDS-PAGE / western blotting)
Conditions: 1.5 wt %, elevated temperature
Experimental: An experiment of measuring structural stability of MelBSt (Salmonella typhimurium melibiose permease) protein with NBMs was carried out. The MelBSt protein was extracted from the membrane using NBMs or DDM, and the amounts and structure of the extracted proteins were analyzed by SDS-PAGE and western blotting. The concentration of the used amphiphilic compound was 1.5 wt %. The proteins were extracted at four temperatures (0, 45, 55, and 65° C.) and incubated at the same temperature for 90 minutes, and the amounts of the remaining proteins solubilized in an aqueous solution were measured, so as to simultaneously evaluate both performances of the compound such as protein extraction efficiency and stabilization activity. The amounts of the proteins extracted and stabilized by respective amphiphilic molecules were represented as relative values (%) to the amounts of total proteins contained in the membrane sample not treated with an amphiphilic molecule.
Specifically, Salmonella typhimurium melibiose permease (MelBSt) with a C-terminal 10-His tag was expressed in E. coli DW2 cells (^ΔmelB and ^ΔlacZY) using plasmid pK95^ΔAHB/WT MelBSt/CH10. Cell growth and membrane preparation were carried out according to the method described in the literature written by A. S. Ethayathulla et al. (Nat. Commun. 2014, 5, 3009). Protein assays were carried out with a Micro BCA kit (Thermo Scientific, Rockford, Ill.). The measurement of MelBSt stability was carried out on NBMs or DDM according to the protocol described by P. S. Chae et al. (Nat. Methods 2010, 7, 1003-1008). Membrane samples containing MelBSt (final protein concentration was 10 mg/mL) were incubated with a solubilization buffer (20 mM sodium phosphate, pH 7.5, 200 mM NaCl, 10% glycerol, 20 mM melibiose) and 1.5% (w/v) of DDM or NBMs (X-NBM-C10, D-NBM-C10, X-NBM-C11 or D-NBM-C11) at four different temperatures (0, 45, 55, 65° C.) for 90 minutes. To remove insoluble materials, following ultracentrifugation at 355,590 g using a Beckman Optimal™ MAX ultracentrifuge with TLA-100 rotor for 45 minutes at 4° C. was performed, and 20 μg of each protein sample was separated by SDS-16% PAGE, and then immunoblotted with a Penta-His-HRP antibody (Qiagen, Germantown, Md.). MelBSt was detected using SuperSignal West Pico chemiluminescent substrate by an ImageQuant LAS 4000 Biomolecular Imager (GE Health Care Life Science).

T1 sequence (P30878 whole entry): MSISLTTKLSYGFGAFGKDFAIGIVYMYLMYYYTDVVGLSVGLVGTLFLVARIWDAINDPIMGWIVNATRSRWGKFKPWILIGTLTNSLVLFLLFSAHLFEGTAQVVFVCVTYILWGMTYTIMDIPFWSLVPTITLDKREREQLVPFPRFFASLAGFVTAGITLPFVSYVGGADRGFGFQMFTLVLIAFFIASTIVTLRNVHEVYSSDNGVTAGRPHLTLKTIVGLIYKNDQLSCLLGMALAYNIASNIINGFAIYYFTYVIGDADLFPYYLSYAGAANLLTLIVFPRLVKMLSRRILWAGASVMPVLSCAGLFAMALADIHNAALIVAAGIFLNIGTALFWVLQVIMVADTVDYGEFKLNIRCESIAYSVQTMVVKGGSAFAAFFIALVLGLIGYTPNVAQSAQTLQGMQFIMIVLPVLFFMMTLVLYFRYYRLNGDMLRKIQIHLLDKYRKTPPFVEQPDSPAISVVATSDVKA

Q: How did the “MelBSt membrane protein stabilization activity (overall)” value turn out when `CCCCCCCCCCCOCC1C2CC([C@@H]1COCCCCCCCCCCC)[C@H](O[C@@H]1OC(CO)[C@@H](O[C@H]3OC(CO)[C@@H](O)C(O)C3O)C(O)C1O)C2O[C@@H]1OC(CO)[C@@H](O[C@H]2OC(CO)[C@@H](O)C(O)C2O)C(O)C1O` (stereo partly drawn) [D-NBM-C11] was run?
A: excellent membrane protein stabilization activity
